Reference: ChEMBL document CHEMBL4393657, “Tetrazole hybrids and their antifungal activities” (2019)
Converted amounts (≈) assume the structure as drawn.

What was measured:
Type in all cases: functional
Candida albicans [1] = experiment: Antifungal activity against Candida albicans assessed as reduction in fungal cell growth incubated for 48 hrs by broth microdilution method
Aspergillus niger [2] = experiment: Antifungal activity against Aspergillus niger assessed as reduction in fungal cell growth incubated for 48 hrs by broth microdilution method
Aspergillus flavus [3] = experiment: Antifungal activity against Aspergillus flavus assessed as inhibition zone at 25 ug/ml by disk diffusion method; settings: read-out: IZ
Aspergillus fumigatus [4] = experiment: Antifungal activity against Aspergillus fumigatus assessed as inhibition zone at 25 ug/ml by disk diffusion method; settings: read-out: IZ
Aspergillus niger [5] = experiment: Antifungal activity against Aspergillus niger assessed as inhibition zone at 25 ug/ml by disk diffusion method; settings: read-out: IZ
Candida albicans [6] = experiment: Antifungal activity against Candida albicans assessed as inhibition zone at 25 ug/ml by disk diffusion method; settings: read-out: IZ
Candida albicans [7] = experiment: Antifungal activity against Candida albicans NCCS 3471 assessed as inhibition zone at 500 ug/ml by disk diffusion method; settings: read-out: IZ
Aspergillus niger [8] = experiment: Antifungal activity against Aspergillus niger NCCS 1196 assessed as inhibition zone at 500 ug/ml by disk diffusion method; settings: read-out: IZ
Candida albicans [9] = experiment: Antifungal activity against Candida albicans assessed as inhibition zone at 125 ug/ml by disk diffusion method; settings: read-out: IZ
Aspergillus flavus [10] = experiment: Antifungal activity against Aspergillus flavus NCIM 524 assessed as reduction in fungal cell growth incubated for 3 to 4 days by disk diffusion method
Aspergillus fumigatus [11] = experiment: Antifungal activity against Aspergillus fumigatus NCIM 902 assessed as reduction in fungal cell growth incubated for 3 to 4 days by disk diffusion method
Talaromyces marneffei = experiment: Antifungal activity against Penicillium marneffei assessed as reduction in fungal cell growth incubated for 3 to 4 days by disk diffusion method
[12] = test system: Trichophyton mentagrophytes; experiment: Antifungal activity against Trichophyton mentagrophytes assessed as reduction in fungal cell growth incubated for 3 to 4 days by disk diffusion method
Candida albicans [13] = experiment: Antifungal activity against Candida albicans MTCC 227 assessed as reduction in fungal cell growth incubated for 24 hrs by broth microdilution method; settings: MTCC 227, 24 h
Nakaseomyces glabratus [14] = experiment: Antifungal activity against Candida glabrata NCIM 3236 assessed as reduction in fungal cell growth incubated for 24 hrs by broth microdilution method; settings: NCIM 3236, 24 h
Candida tropicalis [15] = experiment: Antifungal activity against Candida tropicalis NCIM 3110 assessed as reduction in fungal cell growth incubated for 48 hrs by broth microdilution method; settings: NCIM 3110, 48 h
Nakaseomyces glabratus [16] = experiment: Potency index, ratio for MIC of fluconazole to MIC of compound for antifungal activity against Candida glabrata NCIM 3236 assessed as reduction in fungal cell growth incubated for 24 hrs by broth microdilution method
Candida tropicalis [17] = experiment: Potency index, ratio for MIC of fluconazole to MIC of compound for Antifungal activity against Candida tropicalis NCIM 3110 assessed as reduction in fungal cell growth incubated for 24 hrs by broth microdilution method
Aspergillus flavus [18] = experiment: Antifungal activity against Aspergillus flavus
Candida albicans [19] = experiment: Antifungal activity against Candida albicans
Aspergillus niger [20] = experiment: Antifungal activity against Aspergillus niger
Mucor indicus = experiment: Antifungal activity against Mucor indicus
Rhizopus arrhizus = experiment: Antifungal activity against Rhizopus arrhizus
Candida albicans [21] = experiment: Antifungal activity against Candida albicans ATCC 885653 assessed as inhibition zone at 100 ug/ml incubated for 48 to 72 hrs by agar-diffusion method; settings: read-out: IZ
Candida albicans [22] = experiment: Antifungal activity against Candida albicans assessed as reduction in fungal cell growth incubated for 24 hrs by broth microdilution method

COc1ccc(C2c3ccc4ccccc4c3Oc3[nH]c(=S)n4nnnc4c32)cc1 (stereo not given)
MIC (Candida albicans [1]): 50 to 400 µg/mL (≈ 121 to 967 µM) | MIC (Aspergillus niger [2]): 50 to 400 µg/mL (≈ 121 to 967 µM)

Cc1ccc(OCc2cn(Cc3ccc(-c4ccccc4-c4nnn[nH]4)cc3)nn2)cc1
zone of inhibition at 25 µg/mL (Aspergillus flavus [3]): 11 to 18 mm | zone of inhibition at 25 µg/mL (Aspergillus fumigatus [4]): 11 to 18 mm | zone of inhibition at 25 µg/mL (Aspergillus niger [5]): 11 to 18 mm | zone of inhibition at 25 µg/mL (Candida albicans [6]): 11 to 18 mm

CC(=O)N1N=C(Cn2cc(-c3nn(-c4ccncc4)cc3-c3nnnn3-c3ccc(C(F)(F)F)cc3)c3cc(Cl)ccc32)OC1(C)c1ccc(C)cc1 (stereo not given)
zone of inhibition at 500 µg/mL (Candida albicans [7]): 11 to 20 mm | zone of inhibition at 500 µg/mL (Aspergillus niger [8]): 11 to 20 mm

Clc1ccc(OCc2cn(Cc3ccc(-c4ccccc4-c4nnn[nH]4)cc3)nn2)cc1
zone of inhibition at 25 µg/mL (Aspergillus flavus [3]): 11 to 18 mm | zone of inhibition at 25 µg/mL (Aspergillus fumigatus [4]): 11 to 18 mm | zone of inhibition at 25 µg/mL (Aspergillus niger [5]): 11 to 18 mm | zone of inhibition at 25 µg/mL (Candida albicans [6]): 11 to 18 mm

Cc1ccccc1OCc1cn(Cc2ccc(-c3ccccc3-c3nnn[nH]3)cc2)nn1
zone of inhibition at 25 µg/mL (Aspergillus flavus [3]): 11 to 18 mm | zone of inhibition at 25 µg/mL (Aspergillus fumigatus [4]): 11 to 18 mm | zone of inhibition at 25 µg/mL (Aspergillus niger [5]): 11 to 18 mm | zone of inhibition at 25 µg/mL (Candida albicans [6]): 11 to 18 mm

CC(=O)N1N=C(Cn2cc(-c3nn(-c4ccncc4)cc3-c3nnnn3-c3ccc(C(F)(F)F)cc3)c3cc(Cl)ccc32)OC1(C)c1ccc([N+](=O)[O-])cc1 (stereo not given)
zone of inhibition at 500 µg/mL (Candida albicans [7]): 11 to 20 mm | zone of inhibition at 500 µg/mL (Aspergillus niger [8]): 11 to 20 mm

Fc1ccc(C2c3ccc4ccccc4c3Oc3[nH]c(=S)n4nnnc4c32)cc1 (stereo not given)
MIC (Candida albicans [1]): 50 to 400 µg/mL (≈ 125 to 996 µM) | MIC (Aspergillus niger [2]): 50 to 400 µg/mL (≈ 125 to 996 µM)

O=[N+]([O-])c1ccc(/N=C/c2cc3cc(-c4nc5ccccc5[nH]4)ccc3n3nnnc23)cc1
zone of inhibition at 125 µg/mL (Candida albicans [9]): 7 to 12 mm

COc1ccc(C2(C)OC(Cn3cc(-c4nn(-c5ccncc5)cc4-c4nnnn4-c4ccc(C(F)(F)F)cc4)c4cc(Cl)ccc43)=NN2C(C)=O)cc1 (stereo not given)
zone of inhibition at 500 µg/mL (Candida albicans [7]): 11 to 20 mm | zone of inhibition at 500 µg/mL (Aspergillus niger [8]): 11 to 20 mm

c1ccc(-n2nnnc2SCCCSc2nnnn2C2CC2)cc1
MIC (Aspergillus flavus [10]): 6.25 to 50 µg/mL (≈ 17.3 to 139 µM) | MIC (Aspergillus fumigatus [11]): 6.25 to 50 µg/mL (≈ 17.3 to 139 µM) | MIC (Talaromyces marneffei): 6.25 to 50 µg/mL (≈ 17.3 to 139 µM) | MIC [12]: 6.25 to 50 µg/mL (≈ 17.3 to 139 µM)

O=c1c(OCc2nnn[nH]2)c(-c2ccc(F)cc2)oc2c(Cl)cc(Cl)cc12
MIC (Candida albicans [13]): 12.5 to 50 µg/mL (≈ 30.7 to 123 µM) | MIC (Nakaseomyces glabratus [14]): 12.5 to 50 µg/mL (≈ 30.7 to 123 µM) | MIC (Candida tropicalis [15]): 12.5 to 50 µg/mL (≈ 30.7 to 123 µM) | Ratio (Nakaseomyces glabratus [16]): 8 - 64 | Ratio (Candida tropicalis [17]): 8 - 64

C(=N\c1ccccc1)/c1cc2cc(-c3nc4ccccc4[nH]3)ccc2n2nnnc12
zone of inhibition at 125 µg/mL (Candida albicans [9]): 7 to 12 mm

S=c1[nH]c2c(c3nnnn13)C(c1ccc(Cl)cc1)c1ccc3ccccc3c1O2 (stereo not given)
MIC (Candida albicans [1]): 50 to 400 µg/mL (≈ 120 to 957 µM) | MIC (Aspergillus niger [2]): 50 to 400 µg/mL (≈ 120 to 957 µM)

Cc1cccc2c(=O)c(OCc3nnn[nH]3)c(-c3ccc(F)cc3)oc12
MIC (Candida albicans [13]): 12.5 to 50 µg/mL (≈ 35.5 to 142 µM) | MIC (Nakaseomyces glabratus [14]): 12.5 to 50 µg/mL (≈ 35.5 to 142 µM) | MIC (Candida tropicalis [15]): 12.5 to 50 µg/mL (≈ 35.5 to 142 µM) | Ratio (Nakaseomyces glabratus [16]): 8 - 64 | Ratio (Candida tropicalis [17]): 8 - 64

O=C(O)c1cn(C2CC2)c2nc(N3CCN(CC(=O)c4nnnn4-c4ccc(F)cc4)CC3)c(F)cc2c1=O
MIC (Aspergillus flavus [18]): 6.25 to 100 µg/mL (≈ 11.6 to 186 µM) | MIC (Candida albicans [19]): 6.25 to 100 µg/mL (≈ 11.6 to 186 µM) | MIC (Aspergillus niger [20]): 6.25 µg/mL (≈ 11.6 µM) | MIC (Mucor indicus): 6.25 to 100 µg/mL (≈ 11.6 to 186 µM) | MIC (Rhizopus arrhizus): 6.25 to 100 µg/mL (≈ 11.6 to 186 µM)

O=C(O)c1cn(C2CC2)c2nc(N3CCN(CC(=O)c4nnnn4-c4ccc([N+](=O)[O-])cc4)CC3)c(F)cc2c1=O
MIC (Aspergillus flavus [18]): 6.25 to 100 µg/mL (≈ 11.1 to 177 µM) | MIC (Candida albicans [19]): 6.25 to 100 µg/mL (≈ 11.1 to 177 µM) | MIC (Aspergillus niger [20]): 6.25 µg/mL (≈ 11.1 µM) | MIC (Mucor indicus): 6.25 to 100 µg/mL (≈ 11.1 to 177 µM) | MIC (Rhizopus arrhizus): 6.25 to 100 µg/mL (≈ 11.1 to 177 µM)

Cc1ccc(C(=O)CSc2nc3ccccc3c3nnnn23)cc1
zone of inhibition at 100 µg/mL (Candida albicans [21]): 6 to 22 mm

C[C@@H]1[C@H](O)[C@@H](C)/C=C/C=C/C=C/C=C/C=C/C=C/C=C/[C@H](O[C@@H]2O[C@H](C)[C@@H](O)[C@H](N)[C@@H]2O)C[C@@H]2O[C@](O)(C[C@@H](O)C[C@@H](O)[C@H](O)CC[C@@H](O)C[C@@H](O)CC(=O)O[C@H]1C)C[C@H](O)[C@H]2C(=O)O [AMPHOTERICIN B]
MIC (Candida albicans [22]): < 0.48 µg/mL

CC(=O)N1N=C(Cn2cc(-c3nn(-c4ccncc4)cc3-c3nnnn3-c3ccc(C(F)(F)F)cc3)c3cc(Cl)ccc32)OC1(C)c1ccc(Br)cc1 (stereo not given)
zone of inhibition at 500 µg/mL (Candida albicans [7]): 11 to 20 mm | zone of inhibition at 500 µg/mL (Aspergillus niger [8]): 11 to 20 mm

Clc1ccccc1OCc1cn(Cc2ccc(-c3ccccc3-c3nnn[nH]3)cc2)nn1
zone of inhibition at 25 µg/mL (Aspergillus flavus [3]): 11 to 18 mm | zone of inhibition at 25 µg/mL (Aspergillus fumigatus [4]): 11 to 18 mm | zone of inhibition at 25 µg/mL (Aspergillus niger [5]): 11 to 18 mm | zone of inhibition at 25 µg/mL (Candida albicans [6]): 11 to 18 mm

O=[N+]([O-])c1ccc(OCc2cn(Cc3ccc(-c4ccccc4-c4nnn[nH]4)cc3)nn2)cc1
zone of inhibition at 25 µg/mL (Aspergillus flavus [3]): 11 to 18 mm | zone of inhibition at 25 µg/mL (Aspergillus fumigatus [4]): 11 to 18 mm | zone of inhibition at 25 µg/mL (Aspergillus niger [5]): 11 to 18 mm | zone of inhibition at 25 µg/mL (Candida albicans [6]): 11 to 18 mm

O=[N+]([O-])c1cccc(C2c3ccc4ccccc4c3Oc3[nH]c(=S)n4nnnc4c32)c1 (stereo not given)
MIC (Candida albicans [1]): 50 to 400 µg/mL (≈ 117 to 934 µM) | MIC (Aspergillus niger [2]): 50 to 400 µg/mL (≈ 117 to 934 µM)

O=C(O)c1cn(C2CC2)c2nc(N3CCN(CC(=O)c4nnnn4-c4ccc(Br)cc4)CC3)c(F)cc2c1=O
MIC (Aspergillus flavus [18]): 6.25 to 100 µg/mL (≈ 10.5 to 167 µM) | MIC (Candida albicans [19]): 6.25 to 100 µg/mL (≈ 10.5 to 167 µM) | MIC (Aspergillus niger [20]): 6.25 to 100 µg/mL (≈ 10.5 to 167 µM) | MIC (Mucor indicus): 6.25 to 100 µg/mL (≈ 10.5 to 167 µM) | MIC (Rhizopus arrhizus): 6.25 to 100 µg/mL (≈ 10.5 to 167 µM)

COc1ccc(C(=O)CSc2nc3ccccc3c3nnnn23)cc1
zone of inhibition at 100 µg/mL (Candida albicans [21]): 6 to 22 mm
